Reference: US4044043A, “Derivatives of 9-oxo-13-trans-prostenoic acid esters” (American Cyanamid Company, priority 1975, dated 1977)
Values after ≈ are worked out from the molar mass of the structure shown. Where two headings read alike, the source gives them in different places.

Columns and labels:
[1] = tested on: Microsporum gypseum ATCC 14683; assay: agar-dilution streak-plate antimicrobial assay; type: cell-based; details: Nannizzia gypsea, ATCC14683, read-out: Minimal inhibitory conc. (2)
In short: (§1)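 MIC (µg/ml) read visually as complete growth inhibition on streaked agar plates. Compound stock 2.5 mg/ml, two-fold serial dilutions, 1 ml into 9 ml nutrient agar; separate agar for bacteria vs fungi. Inoculum: overnight broth cultures; filamentous fungi as spores in saline.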

[2] = tested on: Trichophyton tonsurans NIH 662; assay: agar-dilution streak-plate antimicrobial assay; type: cell-based; details: NIH662, read-out: Minimal inhibitory conc. (3)
In short: as §1

[3] = tested on: Mycobacterium smegmatis ATCC 606; assay: agar-dilution streak-plate antimicrobial assay; type: cell-based; details: Mycolicibacterium smegmatis, ATCC606, read-out: Minimal inhibitory conc. (6)
In short: as §1

[4] = tested on: Trichophyton mentagrophytes E 11; assay: agar-dilution streak-plate antimicrobial assay; type: cell-based; details: E11, read-out: Minimal inhibitory conc. (4)
In short: as §1

diastolic blood pressure = assay: Prostaglandin-like hypotensive activity in anesthetized rats (minimal dose for about 10 mm. decrease in diastolic blood pressure); type: in vivo, Male Wistar strain rats; details: Rattus norvegicus; intravenous; decrease of about 10 mm. in diastolic blood pressure
In short: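 Male Wistar rats (~250 g), pentobarbital 30 mg./kg. i.v. and hexamethonium 2 mg./kg. i.v., iliac artery cannulated for blood pressure. Compounds in saline-Tween 80 given i.v. at 0.1–10.0 mg./kg.; value is the minimal dose giving ~10 mm. drop in diastolic pressure.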

[5] = tested on: bronchospasms elicited by histamine; assay: Bronchodilator Activity (Konzett Assay) against histamine; type: in vivo, guinea pigs; details: Cavia porcellus; three logarithmic cumulative intravenous doses
Experimental: (§2) Bronchodilator activity was determined in guinea pigs against bronchospasms elicited by intravenous injections of 5-hydroxytryptamine, histamine or acetylcholine by the Konzett procedure. [See J. Lulling, P. Lievens, F. El Sayed and J. Prignot, Arzeneimittel-Forschung, 18, 995 (1968)]. In Table IIIC which follows bronchodilator activity for representative compounds of this invention against one or more of the three spasmogenic agents is expressed as an ED50 determined from the results obtained with three logarithmic cumulative intravenous doses.

[6] = tested on: dl-PGE1-induced contraction of gerbil colon; assay: Inhibition of dl-PGE1-Induced Contraction of Gerbil Colon (prostaglandin antagonist action); type: cell-based, gerbils (Meriones unguiculatus); details: Meriones unguiculatus, 1 min; sub-maximal challenge, 20 ng./ml. dl-PGE1; 50% inhibition of maximum response; read-out: ID50 vs. 20 ng. of PGE1/ml.
In short: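 Ascending colon from male gerbils, held in De Jalon's solution at 37 °C under 95% O2/5% CO2 with 0.5 g resting tension, contraction recorded isometrically. 1 min compound exposure, then 1 min dl-PGE1 at 200 ng/ml (maximal) or 20 ng/ml (sub-maximal). Approximate ID50 taken from a concentration series against the preceding agonist-only cycle.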

[7] = tested on: bronchospasms elicited by acetylcholine; assay: Bronchodilator Activity (Konzett Assay) against acetylcholine; type: in vivo, guinea pigs; details: Cavia porcellus; three logarithmic cumulative intravenous doses
Experimental: as §2

[8] = tested on: bronchospasms elicited by 5-hydroxytryptamine; assay: Bronchodilator Activity (Konzett Assay) against 5-hydroxytryptamine; type: in vivo, guinea pigs; details: Cavia porcellus; three logarithmic cumulative intravenous doses
Experimental: as §2

gastric acid secretion [9] = assay: Inhibition of basal Gastric Acid Secretion (Acute Gastric Fistula Rat); type: in vivo, Female Sprague-Dawley rats; details: 10 mg./kg. intraduodenal
Experimental: Inhibition of basal gastric acid secretion was determined in the acute gastric fistula rat as follows. Female Sprague-Dawley rats (Charles River Laboratories) weighing 140-160 grams are fasted in individual cages for 18-24 hours. The rats are then lightly anesthetized with ether and their front teeth extracted to avoid destruction of the plastic cannula. A midline incision is then made and the stomach and duodenum exposed. A flanged polyvinyl tube is inserted into the fundic portion of the stomach and secured with a purse string suture line using 4-0 Mersilene. The rat is then dosed by injection of the compound into the duodenum (1.0 ml. per 100 gram body weight). After dosing, the abdominal wall and skin are closed using metal wound clips. The rat is replaced in a cage containing a longitudinal slit to allow the polyvinyl tube to hang freely. An 8 ml. plastic collecting tube is attached to the flanged cannula and hangs freely below the cage. The first 30 minute sample is discarded designating this time as zero. The collecting tube is attached again and samples removed at the end of 60 and 120 minutes. Those samples are referred to as "A" and "B" in the table. The hourly samples are then transferred to a 15 ml. centrifuge tube and centrifuged for 5-10 minutes. Total and sediment volume are then recorded with the supernatant volume being used as volume of secretion. A 1 ml. or less aliquot is then removed and placed in a 50 ml. beaker containing 10 ml. of distilled water. This sample is then titrated using 0.01N NaOH to pH 7.0 using a Beckman zeromatic pH meter. Volume, titratable acidity (meq/L) and total acid output (μ eq/hour) are recorded. Percent inhibition is determined by comparison with the appropriate control. Groups of three rats were used. All compounds are administered in vehicle (0.5% methocel, 0.4% Tween 80, saline) at a constant volume of 1 ml./100 gram rat. Samples were sonicated with care to prevent overheating.

[10] = tested on: Streptococcus pyogenes C 203; assay: agar-dilution streak-plate antimicrobial assay; type: cell-based; details: C203, read-out: Minimal inhibitory conc. (8)
In short: as §1

gastric acid secretion [11] = assay: Inhibition of Gastric Acid Secretion (Pylorous-Ligated Rat), Shay rat procedure; type: in vivo, rats (male, CFE strain); details: read-out: % Inhibition of Control Gastric Acid Secretion
In short: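 Male CFE rats were fasted 48 h, then pylorus-ligated under ether. Gastric contents were titrated with 0.02N or 0.04N NaOH to pH 8.4 for acid output, and ≥20% inhibition counted as active.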

[12] = tested on: Microsporum canis ATCC 10214; assay: agar-dilution streak-plate antimicrobial assay; type: cell-based; details: ATCC10214, read-out: Minimal inhibitory conc. (1)
In short: as §1

Trichophyton rubrum E 97 = assay: agar-dilution streak-plate antimicrobial assay; type: cell-based; details: E97, read-out: Minimal inhibitory conc. (5)
In short: as §1

[13] = 2 h, B: 120 minute collection, read-out: % Inhibition Total Acid Output
[14] = 2 h, B: 120 minute collection, read-out: % Inhibition Total Acidity

Row | SMILES | MIC [1] [µg/mL] | MIC [2] [µg/mL] | MIC [3] [µg/mL] | MIC [4] [µg/mL] | minimal effective dose (diastolic blood pressure) [mg/kg] | ED50 [5] [mg/kg] | IC50 [6] [µg/mL] | ED50 [7] [mg/kg] | ED50 [8] [mg/kg] | MIC [10] [µg/mL] | further results
1 | CCSCCC/C=C/[C@@H]1CCC(=O)[C@H]1CCCCCCC(=O)O (relative stereo) [9-oxo-18-thia-13-trans-prostenoic acid] | 250 (≈ 734 µM) | 125 (≈ 367 µM) | 250 (≈ 734 µM) | 125 (≈ 367 µM) | 0.2 | 1.38 | 1 (≈ 2.94 µM) | > 10 | 1.99 | – | –
2 | CCOCCC/C=C/[C@@H]1CCC(=O)[C@H]1CCCCCCC(=O)O (relative stereo) [18-oxa-9-oxo-13-trans-prostenoic acid] | – | 250 (≈ 771 µM) | – | 250 (≈ 771 µM) | 2 | 1.5 | 15 to 25 (≈ 46.2 to 77.1 µM) | > 10 | 1.92 | – | inhibition in vivo at 10 mg/kg (gastric acid secretion [9]; [13]): 56%; inhibition in vivo at 10 mg/kg (gastric acid secretion [9]; [14]): 43%
3 | CCCCCCCCCC/C=C/[C@H]1CCC(=O)[C@@H]1CCCCCCC(=O)O (relative stereo) [20-butyl-9-oxo-13-trans-prostenoic acid] | – | 250 (≈ 660 µM) | 10 (≈ 26.4 µM) | – | – | 2.4 | – | > 10 | > 10 | 10 (≈ 26.4 µM) | –
4 | O=C(O)CCCC/C=C/[C@@H]1CCC(=O)[C@H]1CCCCCCC(=O)O (relative stereo) [20-carboxy-9-oxo-18,19-dinor-13-trans-prostenoic acid] | – | – | – | – | 8 | – | 35 (≈ 103 µM) | – | – | – | inhibition in vivo at 10 mg/kg (gastric acid secretion [9]; [13]): 25%; inhibition in vivo at 10 mg/kg (gastric acid secretion [9]; [14]): 30%
5 | O=C(O)CCCCCC[C@H]1C(=O)CC[C@@H]1/C=C/CCCCCCS (relative stereo) [20-mercapto-9-oxo-13-trans-prostenoic acid] | 125 (≈ 353 µM) | 250 (≈ 705 µM) | 125 (≈ 353 µM) | 250 (≈ 705 µM) | – | – | – | – | – | 6 (≈ 16.9 µM) | –
6 | CCCCCC/C=C/[C@H]1CCC(=O)[C@@H]1CC(=O)OCC (relative stereo) [ethyl 9-oxo-3,4,5,6,7-pentanor-13-trans-prostenoate] | – | 250 (≈ 892 µM) | 125 (≈ 446 µM) | 125 (≈ 446 µM) | 8 | – | – | – | – | 125 (≈ 446 µM) | –
7 | CCCCCC/C=C/[C@@H]1CCC(=O)[C@H]1CCCCOCC(=O)OCC (relative stereo) [ethyl 9-oxo-3-oxa-13-trans-prostenoate, ethyl 3-oxa-9-oxo-13-trans-prostenoate] | – | – | – | – | – | – | – | – | – | – | inhibition in vivo at 10 mg/kg (gastric acid secretion [9]; 1 h, A: 60 minute collection, read-out: % Inhibition Total Acid Output): 40%; inhibition in vivo at 10 mg/kg (gastric acid secretion [9]; 1 h, A: 60 minute collection, read-out: % Inhibition Total Acidity): 37%; inhibition in vivo at 50 mg/kg (gastric acid secretion [11]; 50 mg./kg. intraduodenal): 48%; inhibition in vivo at 100 mg/kg (gastric acid secretion [11]; 100 mg./kg. intraduodenal): 89%; inhibition in vivo at 109 mg/kg (gastric acid secretion [11]; 109 mg./kg., 1 hr. pre-ligation): 59%
8 | CCC/C=C/[C@H]1CCC(=O)[C@@H]1CCCCCCC(=O)OCC (relative stereo) [ethyl 9-oxo-18,19,20-trinor-13-trans-prostenoate] | – | – | 250 (≈ 810 µM) | 250 (≈ 810 µM) | – | – | – | – | – | – | inhibition in vivo at 100 mg/kg (gastric acid secretion [11]; 100 mg./kg. intraduodenal): 94%; inhibition in vivo at 100 mg/kg (gastric acid secretion [11]; 100 mg./kg., 1 hr. pre-ligation): 73%; inhibition in vivo at 8 mg/kg (gastric acid secretion [11]; sc, 8 mg./kg. subcutaneous): 40%
9 | CCOC(=O)CCCCCC[C@H]1C(=O)CC[C@@H]1/C=C/C(C)C (relative stereo) [ethyl 15-methyl-9-oxo-17,18,19,20-tetranor-13-trans-prostenoate] | 250 (≈ 810 µM) | 250 (≈ 810 µM) | 62 (≈ 201 µM) | 250 (≈ 810 µM) | – | – | – | – | – | – | MIC [12]: 250 µg/mL (≈ 810 µM); MIC (Trichophyton rubrum E 97): 250 µg/mL (≈ 810 µM)
